Test results: US20220241247A1, “PHARMACOLOGICAL AGENTS FOR TREATING PROTEIN AGGREGATION DISEASES OF THE EYE” (PLEX PHARMACEUTICALS, INC., priority 2019, published 2022)
Like-named read-outs stand apart in the source and are kept apart here.

Tests used:
AAC [1] = biological target: T1, AAC (Homo sapiens, UniProt P02489); assay: UV-induced aggregation of hAAC, measured by absorbance; assay type: biochemical
T1 sequence (P02489 1-173): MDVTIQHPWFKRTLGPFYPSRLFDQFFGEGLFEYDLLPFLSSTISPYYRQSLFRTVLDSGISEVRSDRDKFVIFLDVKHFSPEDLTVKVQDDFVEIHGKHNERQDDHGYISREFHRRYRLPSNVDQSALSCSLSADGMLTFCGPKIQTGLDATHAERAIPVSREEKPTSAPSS
Method: (§1) It was determined that CAP4349 protects hAAC from UV-induced aggregation in a concentration-dependent manner. The meglumine salt of Tafamidis (CAP4349-M) was tested for its ability to prevent hAAC aggregation using SDS/PAGE and absorbance.
In another study, hAAC, with or without CAP4349-M, was exposed to UV light for 60 minutes and the resulting aggregation was measured by absorbance. The results are shown in FIG. 1B in terms of mean percentage absorbance change±SD (n=3 or 4). The EC50 value, which is the half-maximal response of hAAC aggregation, was determined to be19.7(±1.4) μM.

AAC [2] = biological target: T1, AAC; assay: Chaperone assay: heat and DTT-induced aggregation of lysozyme in presence of AAC; assay type: biochemical; settings: AAC 250, lysozyme 500 μg/ml; 10 mM DTT, 37° C.; absorbance at 400 nm
Method: (§2) Post translational modification, due to UV light, oxidation, glycation, crosslinking, and proteolysis can affect the CLA of AAC and its ability to prevent the aggregation of target proteins. These modifications lead to aggregation of other lens crystallins, which culminate in the development of lens opacity and cataract development. Since CAP4349 prevents aggregation of hACC, the effect of CAP4349 on the CLA activity of AAC was evaluated using in vitro chaperone assays with (i) lysozyme as a model client protein, and (ii) bovine γ-crystallin (BGC), as a physiologically relevant lenticular protein.
Heat-induced aggregation of lysozyme: In the presence of a reducing agent (DTT) and heat (37° C.), lysozyme undergoes denaturation and aggregation. The CLA activity of AAC can protect lysozyme against heat and DTT-induced aggregation (Robey, R. L. et al. (1997), Journal of Heterocyclic Chemistry, 34: (2)413-428).

AAC [3] = biological target: T1, AAC; assay: Chaperone assay: UV-induced aggregation of BGC in presence of AAC; assay type: biochemical; settings: UV radiation
Method: as §2
UV-Induced Aggregation of BGC: Exposure to UV radiation is a contributing factor to cataract formation. […]
The aggregation reaction was initiated by exposing the reaction mixture to UVB radiation. Aggregation was monitored for changes in light scattering by measuring absorbance at 600 nm at t=0, 15, 30 and 45 minutes. Mean percentage absorbance±SD from triplicate or quadruplicate wells plotted on a graph (FIG. 2C). EC50 value was calculated as 64.8 (±1.3) […], which is the concentration of CAP4349-M concentration producing half-maximal response of BGC aggregation in presence of AAC.

[4] = test system: HLE cell line SRA 01/04 cells; assay: Heat-induced cell death of human lens epithelial cells; assay type: cell-based; settings: pre-incubated 2 hours; 50° C. for 40 m
Excerpt: (§3) Efficacy of CAP4349 in protection of human lens epithelial cells from stress, as a measure of cellular AC function: Heating of intact human lenses dramatically promotes conversion of soluble AC into HMW aggregates and AC is responsible for protecting human lens epithelial (HLE) cells from thermal stress induced cell death (Peschek J et al. (2009), Proc. Natl. Acad. Sci. USA. 106(32):13272-13277). Survival of HLE cells following UV stress also depends on AC activity (Kumar P. et al., (2007) Biochem. J., 408:251-258). Assays for measuring cell-survival assays following heat or UV exposure were developed as a potential surrogate for AC chaperone activity. HLE cell line SRA 01/04 cells were pre-incubated for 2 hours with CAP4349 and then exposed to heat (50° C. for 40 m) or UV light (48 seconds).

[5] = test system: HLE cell line SRA 01/04 cells; assay: UV-induced cell death of human lens epithelial cells; assay type: cell-based; settings: pre-incubated 2 hours; UV light 48 seconds
Excerpt: as §3

[6] = test system: HLE cell line SRA 01/04 cells; assay: Viability of human lens epithelial cells under normal conditions; assay type: cell-based; settings: no stress
Excerpt: as §3, with “HLE cell line SRA 01/04 cells were pre-incubated for 2 hours with CAP4349 and then exposed to heat (50° C. for 40 m) or UV light (48 seconds).” left out

[7] = test system: AAC(R116C)-GFP in HeLa cells; assay: High-content assay for AAC aggregation (p62-positive inclusions); assay type: cell-based, human; settings: GFP fluorescence
Method: Cellular effects of CAP4349 were evaluated using an automated high-content assay for AAC aggregation. AAC(R116C)-GFP has been reported to form p62 positive inclusions (p62 is known to co-localize with ubiquitinated aggregates in several protein aggregation diseases) (Neal R, et al. (2010) Mol. Vis. 16:2137-2145.). Experiments were carried out to determine whether CAP4349 had any effect on co-localization of AAC and p62 in HeLa cells.

[8] = test system: bovine lens soluble extracts; assay: UV-induced opacification of bovine lens lysate; assay type: biochemical; settings: UV radiation
Excerpt: (§4) Both bovine and human lens lysates contain AAC as well as multiple endogenous client proteins, all of which are present at physiological ratios in a physiologically-relevant milieu of ions, redox pairs and antioxidants.

[9] = test system: human lens soluble extracts; assay: UV-induced opacification of human lens lysate; assay type: biochemical; settings: UV radiation
Excerpt: as §4

porcine lenses = assay: UV-induced opacification of porcine lenses ex vivo; settings: pretreated with 125 μM
Method: Porcine lenses were pretreated with 125 μM CAP4349 (or vehicle) and UV irradiated (or not). Porcine lenses (Sierra for Medical Science, Inc., Whittier, CA) have been used previously in ex vivo models of cataracts (Raju, M. (2014) Biochemistry, 53(16):2615-2623.).

[10] = Estimated maximum concentration in the lens after topical ophthalmic dosing; settings: meglumine formulated; topical ophthalmic bioavailability 2-5%
Excerpt: (§5) Therefore, in order to improve the aqueous solubility and bioavailability, the present disclosure provides prodrugs of CAP4349.

Solubility = assay type: physicochemical; settings: for solubility: disodium salt
Method: as §5
To a solution of Tafamidis, CAP4349 (308 mg) in DMF (10 mL) was added K2CO3 (220 mg) and KI (132 mg) followed by di-tert-butyl chloromethyl phosphate at room temperature while stirring. The reaction mixture was stirred at 70° C. for two hours. The reaction was quenched with ice and extracted three times in Ethyl Acetate. The combined organic layer was washed with water followed by 1% aqueous solution of sodium thiosulfate, and lastly with Brine, yielding the intermediate t-butyl protected phosphate. The t-butyl protected phosphate intermediate was converted to disodium salt in two steps by cleaving the protecting group with TFA followed by NaHCO3 treatment in the presence of water and THF resulting in disodium salt of CAP4357, as a white solid.

AAC [11] = biological target: T1, AAC; assay: UV-induced aggregation of hAAC, SDS-PAGE; assay type: biochemical; settings: UV light 15 minutes; 0-1000 μM; 4-20% SDS-PAGE
Method: as §1
hAAC, with or without CAP4349-M (meglumine salt, 0-1000 μM), was exposed to UV light for 15 minutes and analyzed on a 4-20% gradient SDS-PAGE gel.

[12] = Drug bank value; cited from earlier work
[13] = versus meglumine salt of CAP4349

Question: What does the source list for `O=C(O)c1ccc2nc(-c3cc(Cl)cc(Cl)c3)oc2c1` [CAP4349, 2-(3,5-dichlorophenyl) benzo[d]oxazole-6-carboxylic acid]?
Answer: EC50 (AAC [1]; read-out: EC50 for the prevention of hACC aggregation (as restated in Example 7)): 19.5 µM; protection of lysozyme from aggregation by AAC (AAC [2]): increased protection of lysozyme from aggregation; protection provided by AAC against UV-induced BGC aggregation (AAC [3]): increased the protection provided by AAC against UV-induced BGC aggregation in a dose-dependent manner; protection from heat-induced cell death [4]: protects the cells from heat-induced and UV-induced cell death in a dose-dependent manner; protection from UV-induced cell death [5]: protects the cells from heat-induced and UV-induced cell death in a dose-dependent manner; viability under normal conditions [6]: does not alter the viability; aggregates of AAC(R116C)-GFP co-localized with p62 [7]: decreased; protection of bovine lysate from UV-induced opacification [8]: protected both bovine (FIG. 5A) and human (FIG. 5B) lysates from UV-induced opacification in a dose-dependent manner; protection of human lysate from UV-induced opacification [9]: protected both bovine (FIG. 5A) and human (FIG. 5B) lysates from UV-induced opacification in a dose-dependent manner; UV-induced opacification of porcine lenses (porcine lenses): prevent UV-induced opacification; maximum concentration in the lens [10]: about 5 μM

Question: With `O=C(O)c1ccc2nc(-c3cc(Cl)cc(Cl)c3)oc2c1` [CAP4349-M] as the compound, how does the EC50 (AAC [1]; UV light 60 minutes, absorbance, n=3 or 4, read-out: EC50, half-maximal response of hAAC aggregation) read?
Answer: 19.7 µM

Question: Which solubility (Solubility; aqueous with cosolvent or surfactant or cyclodextrin, 5% aqueous (2-Hydroxypropyl)-β-cyclodextrin, read-out: solubility in 5% aqueous HPBCD) does the source give for `O=C(OCOP(=O)(O)O)c1ccc2nc(-c3cc(Cl)cc(Cl)c3)oc2c1.[Na+].[Na+]` [CAP4357] here?
Answer: 40 mg/mL

Question: What about the solubility (Solubility; water, read-out: aqueous solubility) of the same compound?
Answer: 25 mg/mL

Question: And the “fold increase in HPBCD solubility” value (Solubility; [13])?
Answer: 1,238 fold

Question: And the “fold increase in aqueous solubility” value (Solubility; [13])?
Answer: 774 fold

Question: With `CNC[C@H](O)[C@@H](O)[C@H](O)[C@H](O)CO.O=C(O)c1ccc2nc(-c3cc(Cl)cc(Cl)c3)oc2c1` [CAP4349-M] as the compound, how does the “prevention of hAAC aggregation (band intensities of aggregated and non-aggregated form)” value (AAC [11]) read?
Answer: dose-dependent prevention of hAAC aggregation

Question: What about the maximum solubility [12] of the same compound?
Answer: 0.0323 mg/mL
